According to publication PMC7531004, “Discovery of gramicidin A analogues with altered activities by multidimensional screening of a one-bead-one-compound library” (Nature Communications, 2020):
Where a SMILES comes first, the peptide text is derived from it. [ ]: non-standard residue; d: D form. The star is where a group is joined. NHCH2CH2OH = OCCN*; For = O=C*

Columns and labels:
[1] = H+/Na+ transport assay of bead-derived peptides (one-point); type: biochemical; set-up: key: relative activity; mean of two control wells = 1.00; conditions: bead-derived peptide solution, EYPC/EYPG LUVs;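 note: relative to parent gramicidin A activity set to 1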
Procedure, shortened: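 H+/Na+ transport is monitored through pyranine fluorescence in freshly extruded LUVs after a 30-min room-temperature vortex with each library peptide at a single concentration. Signals are normalized to detergent (Triton X-100) and untreated controls.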

[2] = tested on: P388 mouse leukemia cells; conditions: 92 h
Procedure, shortened: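 First, library peptide stocks are diluted 250-fold in RPMI1640 with 10% heat-inactivated FBS. Next, they are mixed with P388 cells to give 1 × 10^4 cells/mL and incubated 92 h at 37 °C, 5% CO2. Finally, viability (%) is scored by WST-1 absorbance at 415 nm.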

[3] = tested on: Streptococcus pyogenes SSI-9; assay: Antibacterial activity assay of bead-derived peptides (three concentrations); type: cell-based; set-up: key: +++: inhibition by the 640-fold diluted peptide solution; ++: inhibition by the 160-fold diluted solution; +: inhibition by the 40-fold diluted solution; -: no inhibition; conditions: S. pyogenes, bead-derived peptide solution, three concentrations
Procedure, shortened: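 Three stock dilutions per peptide (none, 4-fold, 16-fold in DMSO) are screened in 96-well format. The medium is blood-supplemented cation-adjusted MHB, inoculated with 2 × 10^5 CFU S. pyogenes SSI-9. Growth is read as cell precipitation at 18 h, 37 °C.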

Compound	H+/Na+ transport activity normalized against the value of 1 (1.00) [1]	cell viability/% [2] [%]	antibacterial activity [3]
CC(C)C[C@@H](NC(=O)[C@H](C)NC(=O)CNC(=O)[C@@H](NC=O)C(C)C)C(=O)N[C@@H](C)C(=O)N[C@@H](C(=O)N[C@H](C(=O)N[C@@H](C(=O)N[C@@H](Cc1c[nH]c2ccccc12)C(=O)N[C@H](CC(C)C)C(=O)N[C@@H](Cc1c[nH]c2ccccc12)C(=O)N[C@H](CC(C)C)C(=O)N[C@@H](Cc1c[nH]c2ccccc12)C(=O)N[C@@H](C(=O)N[C@@H](Cc1c[nH]c2ccccc12)C(=O)NCCO)C(C)C)[C@H](C)O)C(C)C)C(C)C [compound 2235] (For-VGA[dL]A[dV]V[dT]W[dL]W[dL]W[dV]W-NHCH2CH2OH)	1.01	100.0	+
CC(C)C[C@@H](NC(=O)[C@H](C)NC(=O)[C@H](NC(=O)[C@H](C)NC(=O)CNC(=O)[C@@H](NC=O)C(C)C)C(C)C)C(=O)N[C@H](C(=O)N[C@@H](C(=O)N[C@@H](Cc1c[nH]c2ccccc12)C(=O)N[C@@H](C(=O)N[C@@H](Cc1c[nH]c2ccccc12)C(=O)N[C@@H](C(=O)N[C@@H](Cc1c[nH]c2ccccc12)C(=O)N[C@H](CC(C)C)C(=O)N[C@@H](Cc1c[nH]c2ccccc12)C(=O)NCCO)C(C)C)C(C)C)[C@H](C)O)C(C)C [compound 9738] (For-VGA[dV]A[dL]V[dT]W[dV]W[dV]W[dL]W-NHCH2CH2OH)	1.21	100.0	-
CNC(=O)C[C@@H](NC(=O)[C@@H](NC(=O)[C@@H](CC(C)C)NC(=O)[C@H](C)NC(=O)[C@@H](CC(C)C)NC(=O)[C@H](C)NC(=O)CNC(=O)[C@@H](NC=O)C(C)C)C(C)C)C(=O)N[C@@H](Cc1c[nH]c2ccccc12)C(=O)N[C@@H](C(=O)N[C@@H](Cc1c[nH]c2ccccc12)C(=O)N[C@@H](C(=O)N[C@@H](Cc1c[nH]c2ccccc12)C(=O)N[C@H](CC(C)C)C(=O)N[C@@H](Cc1c[nH]c2ccccc12)C(=O)NCCO)C(C)C)C(C)C [compound 11601] (For-VGA[dL]A[dL]V[dD](NHMe)W[dV]W[dV]W[dL]W-NHCH2CH2OH)	1.23	98.9	-
CNC(=O)C[C@@H](NC(=O)[C@H](Cc1c[nH]c2ccccc12)NC(=O)[C@H](NC(=O)[C@H](Cc1c[nH]c2ccccc12)NC(=O)[C@H](NC(=O)[C@H](Cc1c[nH]c2ccccc12)NC(=O)[C@@H](CC(C)C)NC(=O)[C@@H](NC(=O)[C@H](NC(=O)[C@H](C)NC(=O)[C@H](NC(=O)[C@H](C)NC(=O)CNC(=O)[C@@H](NC=O)C(C)C)C(C)C)C(C)C)C(C)C)C(C)C)C(C)C)C(=O)N[C@@H](Cc1c[nH]c2ccccc12)C(=O)NCCO [compound 7271] (For-VGA[dV]A[dV]V[dL]W[dV]W[dV]W[dD](NHMe)W-NHCH2CH2OH)	1.02	10.6	-
CC(C)C[C@@H](NC(=O)[C@H](C)NC(=O)[C@H](NC(=O)[C@H](C)NC(=O)CNC(=O)[C@@H](NC=O)C(C)C)C(C)C)C(=O)N[C@H](C(=O)N[C@@H](C(=O)N[C@@H](Cc1c[nH]c2ccccc12)C(=O)N[C@@H](C(=O)N[C@@H](Cc1c[nH]c2ccccc12)C(=O)N[C@@H](C(=O)N[C@@H](Cc1c[nH]c2ccccc12)C(=O)N[C@H](CC(C)C)C(=O)N[C@@H](Cc1c[nH]c2ccccc12)C(=O)NCCO)C(C)C)C(C)C)[C@H](C)O)C(C)C [compound 4395] (For-VGA[dV]A[dL]V[dT]W[dV]W[dV]W[dL]W-NHCH2CH2OH)	1.07	100.0	-
CC(C)C[C@@H](NC(=O)[C@H](C)NC(=O)CNC(=O)[C@@H](NC=O)C(C)C)C(=O)N[C@@H](C)C(=O)N[C@@H](C(=O)N[C@H](C(=O)N[C@@H](C(=O)N[C@@H](Cc1c[nH]c2ccccc12)C(=O)N[C@H](CC(C)C)C(=O)N[C@@H](Cc1c[nH]c2ccccc12)C(=O)N[C@H](CC(C)C)C(=O)N[C@@H](Cc1c[nH]c2ccccc12)C(=O)N[C@H](CC(C)C)C(=O)N[C@@H](Cc1c[nH]c2ccccc12)C(=O)NCCO)[C@H](C)O)C(C)C)C(C)C [compound 6766] (For-VGA[dL]A[dV]V[dT]W[dL]W[dL]W[dL]W-NHCH2CH2OH)	1.07	100.0	+
CC(C)C[C@@H](NC(=O)[C@H](C)NC(=O)CNC(=O)[C@@H](NC=O)C(C)C)C(=O)N[C@@H](C)C(=O)N[C@H](CC(C)C)C(=O)N[C@H](C(=O)N[C@@H](C(=O)N[C@@H](Cc1c[nH]c2ccccc12)C(=O)N[C@@H](C(=O)N[C@@H](Cc1c[nH]c2ccccc12)C(=O)N[C@H](CC(C)C)C(=O)N[C@@H](Cc1c[nH]c2ccccc12)C(=O)N[C@H](CC(C)C)C(=O)N[C@@H](Cc1c[nH]c2ccccc12)C(=O)NCCO)C(C)C)[C@H](C)O)C(C)C [compound 10710] (For-VGA[dL]A[dL]V[dT]W[dV]W[dL]W[dL]W-NHCH2CH2OH)	1.05	100.0	-
CNC(=O)C[C@@H](NC(=O)[C@@H](NC(=O)[C@H](NC(=O)[C@H](C)NC(=O)[C@@H](CC(C)C)NC(=O)[C@H](C)NC(=O)CNC(=O)[C@@H](NC=O)C(C)C)C(C)C)C(C)C)C(=O)N[C@@H](Cc1c[nH]c2ccccc12)C(=O)N[C@@H](C(=O)N[C@@H](Cc1c[nH]c2ccccc12)C(=O)N[C@H](CC(C)C)C(=O)N[C@@H](Cc1c[nH]c2ccccc12)C(=O)N[C@@H](C(=O)N[C@@H](Cc1c[nH]c2ccccc12)C(=O)NCCO)C(C)C)C(C)C [compound 8732] (For-VGA[dL]A[dV]V[dD](NHMe)W[dV]W[dL]W[dV]W-NHCH2CH2OH)	1.11	72.4	-
CC(C)C[C@@H](NC(=O)[C@H](C)NC(=O)CNC(=O)[C@@H](NC=O)C(C)C)C(=O)N[C@@H](C)C(=O)N[C@@H](C(=O)N[C@H](C(=O)N[C@H](CC(C)C)C(=O)N[C@@H](Cc1c[nH]c2ccccc12)C(=O)N[C@H](CC(C)C)C(=O)N[C@@H](Cc1c[nH]c2ccccc12)C(=O)N[C@@H](C(=O)N[C@@H](Cc1c[nH]c2ccccc12)C(=O)N[C@H](CC(C)C)C(=O)N[C@@H](Cc1c[nH]c2ccccc12)C(=O)NCCO)C(C)C)C(C)C)C(C)C [compound 7191] (For-VGA[dL]A[dV]V[dL]W[dL]W[dV]W[dL]W-NHCH2CH2OH)	1.15	0.0	+
CNC(=O)C[C@@H](NC(=O)[C@@H](NC(=O)[C@@H](CC(C)C)NC(=O)[C@H](C)NC(=O)[C@H](NC(=O)[C@H](C)NC(=O)CNC(=O)[C@@H](NC=O)C(C)C)C(C)C)C(C)C)C(=O)N[C@@H](Cc1c[nH]c2ccccc12)C(=O)N[C@H](CC(C)C)C(=O)N[C@@H](Cc1c[nH]c2ccccc12)C(=O)N[C@@H](C(=O)N[C@@H](Cc1c[nH]c2ccccc12)C(=O)N[C@@H](C(=O)N[C@@H](Cc1c[nH]c2ccccc12)C(=O)NCCO)C(C)C)C(C)C [compound 12707] (For-VGA[dV]A[dL]V[dD](NHMe)W[dL]W[dV]W[dV]W-NHCH2CH2OH)	1.06	100.0	-
